How the values were obtained:
[1] = Balikova et al. 2001; cited from earlier work
[2] = Thermal profile / melt event of the free base and its salts; type: physicochemical; details: solid form
From the text: (§1) The advantageous properties of salts according to the invention can be seen from the table below:
(§2) The salts were all obtained in good yields.

[3] = Hygroscopicity of the free base and its salts; type: physicochemical; details: solid form
From the text: as §1, §2

[4] = rat model; Lu et al. 2005, Xie et al. 2005; cited from earlier work
[5] = Norbury et al. 1983; cited from earlier work
[6] = listed as maleic acid addition salt

Molecule	Good thermal profile with clean melt event [2]	Hygroscopic [3]	further results
COc1ccc2c3c1O[C@H]1[C@@H](O)CC[C@H]4[C@@H](C2)N(C)CC[C@@]341 [dihydrocodeine]			share of an oral dose converted to dihydromorphine [1]: less than 2%
CCC1(c2cccc(OC(=O)Nc3ccc(C(=O)O)cc3)c2)CCCCN(C)C1.Cl (stereo not drawn) [meptazinol p-amino-benzoylcarbamate•HCl]	no	yes	
CCC1(c2cccc(OC(=O)Nc3ccc(C(=O)O)cc3)c2)CCCCN(C)C1.CS(=O)(=O)O (stereo not drawn) [Meptazinol PABA Carbamate Methanesulphonic Acid Addition Salt]	yes	not be hygroscopic and no	Good thermal profile with clean melt event ([2]; listed as methanesulphonic acid addition salt): good thermal profiles with clean melt events
(Z)-3-[2-(propionyloxy)phenyl]-2-propenoic ester			bioavailability over meptazinol itself [4]: significant increase
CCC1(c2cccc(O)c2)CCCCN(C)C1 (stereo not drawn) [Meptazinol]			oral bioavailability [5]: < 10%
CCC1(c2cccc(OC(=O)Nc3ccc(C(=O)O)cc3)c2)CCCCN(C)C1.O=S(=O)(O)O (stereo not drawn) [Meptazinol PABA Carbamate Sulphuric Acid Addition Salt]	yes	not be hygroscopic and no	Good thermal profile with clean melt event ([2]; listed as sulphuric acid addition salt): good thermal profiles with clean melt events
CCC1(c2cccc(OC(=O)Nc3ccc(C(=O)O)cc3)c2)CCCCN(C)C1.O=P(O)(O)O (stereo not drawn) [Meptazinol PABA Carbamate Phosphoric Acid Addition Salt]	no	no	Hygroscopic ([3]; listed as phosphoric acid addition salt): not be hygroscopic
CCC1(c2cccc(OC(=O)Nc3ccc(C(=O)O)cc3)c2)CCCCN(C)C1.O=C(O)CC(=O)O (stereo not drawn) [Meptazinol PABA Carbamate Malonic Acid Addition Salt]	yes	not be hygroscopic and no	Good thermal profile with clean melt event ([2]; listed as malonic acid addition salt): good thermal profiles with clean melt events
CCC1(c2cccc(OC(=O)Nc3ccc(C(=O)O)cc3)c2)CCCCN(C)C1 (stereo not drawn) [meptazinol p-amino-benzoylcarbamate, Meptazinol para-amino benzoic acid carbamate]	no	yes	Hygroscopic ([3]; listed as meptazinol p-amino-benzoic acid carbamate): very hygroscopic
CCC1(c2cccc(OC(=O)Nc3ccc(C(=O)O)cc3)c2)CCCCN(C)C1.O=C(O)/C=C\C(=O)O (stereo not drawn) [Meptazinol PABA Carbamate Maleic Acid Addition Salt]	yes	no	Good thermal profile with clean melt event [2, 6]: good thermal profiles with clean melt events; Hygroscopic [3, 6]: not be hygroscopic
